Measurements published in publication PMC6120666 (The EMBO Journal, 2018).

Assays:
Experiment in all cases: Drug affinity chromatography with c-ponatinib and LC-MS/MS (ponatinib interactome)
Assay type in all cases: binding
[1] = target: T1, proteins of U2OS cell lysate (Homo sapiens, UniProt P12931); conditions: SRC, Proto-oncogene tyrosine-protein kinase Src
T1 construct: Proteins enriched by c-ponatinib from U2OS cell lysate; endogenous in cells; host or cells: U2OS cell lysate
Summary of the method: (§1)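 U2OS cell lysate in NP-40 lysis buffer (2 mg protein per pulldown) was incubated with amine-derivatized NHS beads for 2 h at 4 °C. Bound proteins were washed, eluted with 100 mM formic acid, reduced, alkylated and trypsin-digested, then identified by nano-UPLC–MS/MS on Orbitrap instruments with a 60 min gradient.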

[2] = target: T2, proteins of U2OS cell lysate (Homo sapiens, UniProt Q15021); conditions: NCAPD2, Condensin complex subunit 1
T2 construct: Proteins enriched by c-ponatinib from U2OS cell lysate; endogenous in cells; host or cells: U2OS cell lysate
Summary of the method: as §1

[3] = target: T3, proteins of U2OS cell lysate (Homo sapiens, UniProt P55036); conditions: PSMD4, 26S proteasome non-ATPase regulatory subunit 4
T3 construct: Proteins enriched by c-ponatinib from U2OS cell lysate; endogenous in cells; host or cells: U2OS cell lysate
Summary of the method: as §1

[4] = target: T4, proteins of U2OS cell lysate (Homo sapiens, UniProt Q9P0K7); conditions: RAI14, Ankycorbin
T4 construct: Proteins enriched by c-ponatinib from U2OS cell lysate; endogenous in cells; host or cells: U2OS cell lysate
Summary of the method: as §1

[5] = target: T5, proteins of U2OS cell lysate (Homo sapiens, UniProt P51149); conditions: RAB7A, Ras-related protein Rab-7a
T5 construct: Proteins enriched by c-ponatinib from U2OS cell lysate; endogenous in cells; host or cells: U2OS cell lysate
Summary of the method: as §1

[6] = target: T6, proteins of U2OS cell lysate (Homo sapiens, UniProt Q16854); conditions: DGUOK, Deoxyguanosine kinase, mitochondrial
T6 construct: Proteins enriched by c-ponatinib from U2OS cell lysate; endogenous in cells; host or cells: U2OS cell lysate
Summary of the method: as §1

[7] = target: T7, proteins of U2OS cell lysate (Homo sapiens, UniProt Q16181); conditions: SEPT7;DKFZp586I031, Septin-7
T7 construct: Proteins enriched by c-ponatinib from U2OS cell lysate; endogenous in cells; host or cells: U2OS cell lysate
Summary of the method: as §1

[8] = target: T8, proteins of U2OS cell lysate (Homo sapiens, UniProt P43487); conditions: RANBP1, Ran-specific GTPase-activating protein
T8 construct: Proteins enriched by c-ponatinib from U2OS cell lysate; endogenous in cells; host or cells: U2OS cell lysate
Summary of the method: as §1

[9] = target: T9, proteins of U2OS cell lysate (Homo sapiens, UniProt Q9Y2V7); conditions: COG6, Conserved oligomeric Golgi complex subunit 6
T9 construct: Proteins enriched by c-ponatinib from U2OS cell lysate; endogenous in cells; host or cells: U2OS cell lysate
Summary of the method: as §1

[10] = target: T10, proteins of U2OS cell lysate (Homo sapiens, UniProt P61964); conditions: WDR5, WD repeat-containing protein 5
T10 construct: Proteins enriched by c-ponatinib from U2OS cell lysate; endogenous in cells; host or cells: U2OS cell lysate
Summary of the method: as §1

[11] = target: T11, proteins of U2OS cell lysate (Homo sapiens, UniProt Q9H2K8); conditions: TAOK3;TAOK1;TAOK2, Serine/threonine-protein kinase TAO3
T11 construct: Proteins enriched by c-ponatinib from U2OS cell lysate; endogenous in cells; host or cells: U2OS cell lysate
Summary of the method: as §1

[12] = target: T12, proteins of U2OS cell lysate (Homo sapiens, UniProt P20700); conditions: LMNB1, Lamin-B1
T12 construct: Proteins enriched by c-ponatinib from U2OS cell lysate; endogenous in cells; host or cells: U2OS cell lysate
Summary of the method: as §1

[13] = target: T13, proteins of U2OS cell lysate (Homo sapiens, UniProt P00387); conditions: CYB5R3, NADH-cytochrome b5 reductase 3
T13 construct: Proteins enriched by c-ponatinib from U2OS cell lysate; endogenous in cells; host or cells: U2OS cell lysate
Summary of the method: as §1

[14] = target: T14, proteins of U2OS cell lysate (Homo sapiens, UniProt P50991); conditions: CCT4, T-complex protein 1 subunit delta
T14 construct: Proteins enriched by c-ponatinib from U2OS cell lysate; endogenous in cells; host or cells: U2OS cell lysate
Summary of the method: as §1

[15] = target: T15, proteins of U2OS cell lysate (Homo sapiens, UniProt P07947); conditions: YES1, Tyrosine-protein kinase Yes
T15 construct: Proteins enriched by c-ponatinib from U2OS cell lysate; endogenous in cells; host or cells: U2OS cell lysate
Summary of the method: as §1

[16] = target: T16, proteins of U2OS cell lysate (Homo sapiens, UniProt O95819); conditions: MAP4K4, Mitogen-activated protein kinase kinase kinase kinase 4
T16 construct: Proteins enriched by c-ponatinib from U2OS cell lysate; endogenous in cells; host or cells: U2OS cell lysate
Summary of the method: as §1

[17] = target: T17, proteins of U2OS cell lysate (Homo sapiens, UniProt P02545); conditions: LMNA, Prelamin-A/C;Lamin-A/C
T17 construct: Proteins enriched by c-ponatinib from U2OS cell lysate; endogenous in cells; host or cells: U2OS cell lysate
Summary of the method: as §1

[18] = target: T18, proteins of U2OS cell lysate (Homo sapiens, UniProt P51610); conditions: HCFC1, Host cell factor 1
T18 construct: Proteins enriched by c-ponatinib from U2OS cell lysate; endogenous in cells; host or cells: U2OS cell lysate
Summary of the method: as §1

[19] = target: T19, proteins of U2OS cell lysate (Homo sapiens, UniProt P46782); conditions: captured protein RPS5, Rank 160
T19 construct: Proteins enriched by c-ponatinib from U2OS cell lysate; endogenous in cells; host or cells: U2OS cell lysate
Summary of the method: as §1

T9 sequence (Q9Y2V7 whole entry): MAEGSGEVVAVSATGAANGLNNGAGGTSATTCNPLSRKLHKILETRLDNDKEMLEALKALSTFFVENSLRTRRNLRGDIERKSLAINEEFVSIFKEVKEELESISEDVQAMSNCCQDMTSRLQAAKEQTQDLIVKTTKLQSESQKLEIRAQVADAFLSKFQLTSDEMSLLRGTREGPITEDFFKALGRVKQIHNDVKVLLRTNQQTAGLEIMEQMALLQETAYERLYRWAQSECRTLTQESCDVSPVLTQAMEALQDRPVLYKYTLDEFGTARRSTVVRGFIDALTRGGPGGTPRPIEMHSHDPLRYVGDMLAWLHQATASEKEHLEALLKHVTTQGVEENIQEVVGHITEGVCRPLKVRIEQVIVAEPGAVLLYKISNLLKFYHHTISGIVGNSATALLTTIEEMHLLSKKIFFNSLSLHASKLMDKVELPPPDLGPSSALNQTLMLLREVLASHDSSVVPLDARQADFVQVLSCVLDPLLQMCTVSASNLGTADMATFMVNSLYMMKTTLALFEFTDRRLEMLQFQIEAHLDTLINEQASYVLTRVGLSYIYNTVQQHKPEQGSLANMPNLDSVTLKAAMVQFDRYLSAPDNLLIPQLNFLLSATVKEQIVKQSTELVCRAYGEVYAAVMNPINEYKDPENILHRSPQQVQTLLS
T7 sequence (Q16181 whole entry): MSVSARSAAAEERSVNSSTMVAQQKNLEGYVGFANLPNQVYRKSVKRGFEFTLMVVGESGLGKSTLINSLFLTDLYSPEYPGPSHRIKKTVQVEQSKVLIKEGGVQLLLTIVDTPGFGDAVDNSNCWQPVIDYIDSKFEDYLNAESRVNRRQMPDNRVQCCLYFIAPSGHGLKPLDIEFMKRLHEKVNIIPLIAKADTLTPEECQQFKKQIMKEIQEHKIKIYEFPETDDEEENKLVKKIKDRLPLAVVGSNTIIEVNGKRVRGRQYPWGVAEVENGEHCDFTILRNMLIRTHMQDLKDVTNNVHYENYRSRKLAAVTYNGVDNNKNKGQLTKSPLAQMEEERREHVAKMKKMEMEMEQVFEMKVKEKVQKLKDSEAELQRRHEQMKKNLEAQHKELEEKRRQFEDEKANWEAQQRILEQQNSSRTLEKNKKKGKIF
T3 sequence (P55036 whole entry): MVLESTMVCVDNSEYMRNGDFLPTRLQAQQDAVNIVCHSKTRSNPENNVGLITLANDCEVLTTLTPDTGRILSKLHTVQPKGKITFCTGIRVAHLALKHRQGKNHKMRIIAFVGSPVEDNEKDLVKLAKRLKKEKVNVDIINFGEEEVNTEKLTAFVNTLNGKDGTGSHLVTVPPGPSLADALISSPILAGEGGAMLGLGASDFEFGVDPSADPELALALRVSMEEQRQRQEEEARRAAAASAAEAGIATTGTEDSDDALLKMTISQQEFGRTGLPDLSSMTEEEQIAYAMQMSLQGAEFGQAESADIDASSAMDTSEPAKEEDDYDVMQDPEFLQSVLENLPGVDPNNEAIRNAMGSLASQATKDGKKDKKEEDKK
T6 sequence (Q16854 40-277): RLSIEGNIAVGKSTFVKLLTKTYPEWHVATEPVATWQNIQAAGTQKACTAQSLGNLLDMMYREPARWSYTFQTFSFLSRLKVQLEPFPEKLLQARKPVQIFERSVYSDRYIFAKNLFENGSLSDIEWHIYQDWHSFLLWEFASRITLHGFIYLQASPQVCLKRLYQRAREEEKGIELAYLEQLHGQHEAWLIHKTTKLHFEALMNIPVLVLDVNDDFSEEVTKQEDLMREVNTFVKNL
T14 sequence (P50991 whole entry): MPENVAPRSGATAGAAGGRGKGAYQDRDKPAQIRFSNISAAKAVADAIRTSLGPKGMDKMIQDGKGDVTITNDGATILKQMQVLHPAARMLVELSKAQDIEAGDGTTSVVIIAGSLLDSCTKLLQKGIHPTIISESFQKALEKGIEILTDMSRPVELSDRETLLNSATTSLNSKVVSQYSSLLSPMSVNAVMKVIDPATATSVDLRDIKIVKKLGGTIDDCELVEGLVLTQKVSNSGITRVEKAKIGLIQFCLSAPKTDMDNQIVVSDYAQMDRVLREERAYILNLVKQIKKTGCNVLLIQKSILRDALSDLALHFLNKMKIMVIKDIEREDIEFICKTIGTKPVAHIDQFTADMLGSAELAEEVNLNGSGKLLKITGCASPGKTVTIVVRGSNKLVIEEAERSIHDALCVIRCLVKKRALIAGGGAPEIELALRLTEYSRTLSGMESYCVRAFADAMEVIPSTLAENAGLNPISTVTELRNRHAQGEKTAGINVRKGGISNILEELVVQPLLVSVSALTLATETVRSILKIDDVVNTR
T5 sequence (P51149 whole entry): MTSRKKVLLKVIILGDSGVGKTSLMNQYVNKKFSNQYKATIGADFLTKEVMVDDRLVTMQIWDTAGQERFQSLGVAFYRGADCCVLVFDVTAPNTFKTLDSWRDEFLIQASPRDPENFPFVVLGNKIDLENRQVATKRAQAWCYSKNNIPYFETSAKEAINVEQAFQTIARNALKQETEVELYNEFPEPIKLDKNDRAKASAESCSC
T2 sequence (Q15021 whole entry): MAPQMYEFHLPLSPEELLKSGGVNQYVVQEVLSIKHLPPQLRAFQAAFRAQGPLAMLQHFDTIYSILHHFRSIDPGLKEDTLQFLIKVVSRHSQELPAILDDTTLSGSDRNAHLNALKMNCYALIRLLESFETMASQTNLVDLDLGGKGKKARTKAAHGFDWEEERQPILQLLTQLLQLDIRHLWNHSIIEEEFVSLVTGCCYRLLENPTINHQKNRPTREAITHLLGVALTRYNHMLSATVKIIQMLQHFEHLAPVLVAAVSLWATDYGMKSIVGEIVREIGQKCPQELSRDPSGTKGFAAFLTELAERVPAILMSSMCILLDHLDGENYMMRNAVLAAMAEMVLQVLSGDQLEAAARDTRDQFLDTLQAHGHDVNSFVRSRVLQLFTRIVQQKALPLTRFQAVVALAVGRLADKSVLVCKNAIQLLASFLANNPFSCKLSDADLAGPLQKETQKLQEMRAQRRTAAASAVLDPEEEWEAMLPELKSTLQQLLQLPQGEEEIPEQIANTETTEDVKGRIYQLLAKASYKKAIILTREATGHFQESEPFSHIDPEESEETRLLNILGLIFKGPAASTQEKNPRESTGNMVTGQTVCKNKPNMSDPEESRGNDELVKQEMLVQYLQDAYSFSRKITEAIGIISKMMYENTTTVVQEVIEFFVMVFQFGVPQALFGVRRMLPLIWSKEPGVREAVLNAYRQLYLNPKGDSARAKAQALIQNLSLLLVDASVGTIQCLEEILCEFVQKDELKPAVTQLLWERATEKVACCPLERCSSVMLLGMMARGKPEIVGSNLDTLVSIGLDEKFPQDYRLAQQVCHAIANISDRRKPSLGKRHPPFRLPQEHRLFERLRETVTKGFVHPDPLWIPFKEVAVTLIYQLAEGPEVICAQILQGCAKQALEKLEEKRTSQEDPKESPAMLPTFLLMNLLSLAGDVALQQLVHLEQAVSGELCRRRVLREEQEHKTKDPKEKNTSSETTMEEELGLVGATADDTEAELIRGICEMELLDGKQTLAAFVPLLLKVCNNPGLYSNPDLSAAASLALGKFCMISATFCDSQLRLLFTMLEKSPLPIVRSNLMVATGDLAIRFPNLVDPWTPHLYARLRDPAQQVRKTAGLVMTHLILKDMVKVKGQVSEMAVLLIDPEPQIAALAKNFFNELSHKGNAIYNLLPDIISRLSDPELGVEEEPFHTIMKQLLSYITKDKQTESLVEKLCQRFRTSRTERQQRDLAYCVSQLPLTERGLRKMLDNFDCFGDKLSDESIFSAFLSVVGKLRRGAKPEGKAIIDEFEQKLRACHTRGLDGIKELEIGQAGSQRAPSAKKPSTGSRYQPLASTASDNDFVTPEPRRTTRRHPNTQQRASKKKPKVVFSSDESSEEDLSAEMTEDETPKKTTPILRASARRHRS
T11 sequence (Q9H2K8 whole entry): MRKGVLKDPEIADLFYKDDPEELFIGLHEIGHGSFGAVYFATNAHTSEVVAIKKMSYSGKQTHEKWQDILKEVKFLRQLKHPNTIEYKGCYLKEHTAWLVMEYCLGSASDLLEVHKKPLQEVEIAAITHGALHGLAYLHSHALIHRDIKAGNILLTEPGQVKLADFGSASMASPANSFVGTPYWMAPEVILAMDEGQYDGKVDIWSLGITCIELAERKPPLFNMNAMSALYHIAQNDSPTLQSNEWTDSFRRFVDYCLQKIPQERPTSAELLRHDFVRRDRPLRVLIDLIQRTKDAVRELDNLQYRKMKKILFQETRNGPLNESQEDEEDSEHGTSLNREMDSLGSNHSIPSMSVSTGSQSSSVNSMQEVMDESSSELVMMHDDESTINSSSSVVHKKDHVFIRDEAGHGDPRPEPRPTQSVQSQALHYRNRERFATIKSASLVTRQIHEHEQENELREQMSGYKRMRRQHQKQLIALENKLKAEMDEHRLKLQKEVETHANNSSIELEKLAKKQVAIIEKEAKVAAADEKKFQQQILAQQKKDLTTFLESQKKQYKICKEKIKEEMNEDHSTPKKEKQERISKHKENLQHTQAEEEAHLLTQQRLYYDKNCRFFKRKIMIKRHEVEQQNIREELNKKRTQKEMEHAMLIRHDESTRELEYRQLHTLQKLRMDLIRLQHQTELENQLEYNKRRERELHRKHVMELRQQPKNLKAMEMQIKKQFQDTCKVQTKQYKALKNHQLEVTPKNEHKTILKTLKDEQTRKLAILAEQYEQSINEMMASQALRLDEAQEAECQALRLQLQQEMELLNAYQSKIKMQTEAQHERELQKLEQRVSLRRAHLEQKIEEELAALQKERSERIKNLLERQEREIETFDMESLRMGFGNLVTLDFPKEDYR
T8 sequence (P43487 whole entry): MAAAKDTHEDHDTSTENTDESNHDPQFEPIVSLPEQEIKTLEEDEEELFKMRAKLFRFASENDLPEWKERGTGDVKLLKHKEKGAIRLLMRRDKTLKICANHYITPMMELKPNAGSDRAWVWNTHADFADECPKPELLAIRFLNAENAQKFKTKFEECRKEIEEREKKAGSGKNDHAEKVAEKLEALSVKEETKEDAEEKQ

SMILES | Average LFQ PON_WT [1] | Average LFQ PON_WT [2] | Average LFQ PON_WT [3] | Average LFQ PON_WT [4] | Average LFQ PON_WT [5] | Average LFQ PON_WT [6] | Average LFQ PON_WT [7] | Average LFQ PON_WT [8] | Average LFQ PON_WT [9] | Average LFQ PON_WT [10] | Average LFQ PON_WT [11] | Average LFQ PON_WT [12] | Average LFQ PON_WT [13] | Average LFQ PON_WT [14] | Average LFQ PON_WT [15] | Average LFQ PON_WT [16] | Average LFQ PON_WT [17] | Average LFQ PON_WT [18] | Average LFQ intensity [19]
Cc1ccc(C(=O)Nc2ccc(CN3CCN(C)CC3)c(C(F)(F)F)c2)cc1C#Cc1cnc2cccnn12 [PON] | 24.0256 | 21.331 | 21.0725 | 19.7116 | 20.9612 | 23.2666 | 23.204 | 20.4588 | 20.9766 | 20.2851 | 21.1056 | 25.3205 | 20.8184 | 23.8741 | 25.9404 | 26.8473 | 23.7594 | 21.0295 | 
Cc1ccc(C(=O)Nc2ccc(CN3CCN(CCCN)CC3)c(C(F)(F)F)c2)cc1C#Cc1cnc2cccnn12 [c-ponatinib, reference compound] |  |  |  |  |  |  |  |  |  |  |  |  |  |  |  |  |  |  | 22.4465
